Numbers after ± are expanded uncertainties.
Settings: 323.15 K, Liquid, Vibrating tube method

Measured: mass density

CCCCCCC(=O)OCC(COC(=O)CCCCCC)(COC(=O)CCCCCC)COC(=O)CCCCCC [pentaerythritol tetraheptanoate]
955.7 ± 1.2 kg/m3: 102 kPa | 103.5 kPa | 106.8 kPa | 109.1 kPa | 127.2 kPa | 133.3 kPa | 138 kPa | 139.2 kPa | 144.4 kPa | 144.9 kPa | 147.5 kPa | 153.6 kPa | 157.4 kPa | 158.7 kPa | 159.7 kPa | 161.8 kPa | 164.2 kPa | 169.3 kPa | 170.8 kPa | 173.3 kPa | 176.4 kPa | 177.9 kPa | 181.2 kPa | 186.5 kPa | 188 kPa | 190.1 kPa | 193.9 kPa | 241.4 kPa | 245.4 kPa | 265.6 kPa
956 ± 1.2 kg/m3: 543.6 kPa
961.8 ± 1.2 kg/m3: 9091.6 kPa | 9116.3 kPa | 9139.9 kPa | 9164 kPa | 9216.2 kPa
956.4 ± 1.2 kg/m3: 1107 kPa | 1111.5 kPa | 1115.9 kPa | 1120.4 kPa | 1130.3 kPa | 1134.8 kPa | 1149 kPa | 1153.9 kPa | 1178.6 kPa | 1189 kPa | 1199.8 kPa | 1204.6 kPa | 1225.4 kPa | 1236.9 kPa | 1281.2 kPa | 1286.7 kPa | 1298.9 kPa
956.3 ± 1.2 kg/m3: 1089.1 kPa | 1094 kPa | 1098.2 kPa | 1102.3 kPa | 1144.5 kPa | 1159.3 kPa | 1253.4 kPa | 1263.5 kPa
958 ± 1.2 kg/m3: 3644.1 kPa
962.1 ± 1.2 kg/m3: 9431.8 kPa | 9459.4 kPa | 9492.7 kPa | 9576.4 kPa | 9591.9 kPa | 9660.3 kPa | 9673.6 kPa | 9732.2 kPa
956.1 ± 1.2 kg/m3: 814.3 kPa
955.9 ± 1.2 kg/m3: 184.6 kPa | 340.6 kPa | 347.8 kPa | 461.8 kPa | 492.2 kPa | 510.3 kPa | 565.9 kPa
956.2 ± 1.2 kg/m3: 779.6 kPa
958.2 ± 1.2 kg/m3: 3703.5 kPa | 3731.4 kPa | 3822.5 kPa | 3850.4 kPa | 3884.5 kPa | 3913.6 kPa
957.1 ± 1.2 kg/m3: 2116.8 kPa | 2152.2 kPa
962.2 ± 1.2 kg/m3: 9548.7 kPa | 9563.6 kPa | 9646.7 kPa | 9702.7 kPa | 9716.1 kPa | 9788.5 kPa | 9818.5 kPa
957.8 ± 1.2 kg/m3: 3159 kPa | 3207.3 kPa
961.9 ± 1.2 kg/m3: 9192.5 kPa | 9293.8 kPa | 9348.8 kPa | 9373.9 kPa | 9633.3 kPa
957.3 ± 1.2 kg/m3: 2470.4 kPa | 2508.4 kPa | 2527.1 kPa | 2559.7 kPa
956.7 ± 1.2 kg/m3: 1304.6 kPa | 1421.1 kPa | 1434.2 kPa | 1463.5 kPa | 1470.3 kPa | 1499.8 kPa | 1507.4 kPa | 1629.6 kPa
962 ± 1.2 kg/m3: 9269.5 kPa | 9318.4 kPa | 9399.6 kPa | 9518.2 kPa | 9535.7 kPa | 9617.9 kPa
962.3 ± 1.2 kg/m3: 9689.4 kPa | 9802.3 kPa | 9832.1 kPa | 9845.9 kPa | 9862.6 kPa | 9876.5 kPa | 9906.8 kPa | 9920.8 kPa | 9951.3 kPa | 10071 kPa
961.6 ± 1.2 kg/m3: 8752.3 kPa | 8824.6 kPa | 8868.4 kPa | 8990.1 kPa
955.6 ± 1.2 kg/m3: 102.5 kPa | 102.8 kPa | 104.8 kPa | 113.5 kPa | 130.7 kPa | 136.2 kPa | 136.9 kPa | 138.5 kPa | 139.5 kPa | 140.6 kPa | 145.8 kPa | 152.7 kPa | 154.3 kPa | 163.2 kPa | 166.8 kPa | 172 kPa | 179.7 kPa | 196.2 kPa
958.3 ± 1.2 kg/m3: 3792.9 kPa
961.5 ± 1.2 kg/m3: 8709 kPa | 8730.4 kPa | 8778.6 kPa | 8802.6 kPa | 8917.5 kPa
956.9 ± 1.2 kg/m3: 1719.4 kPa | 1775.6 kPa
962.5 ± 1.2 kg/m3: 10088 kPa | 10103 kPa
958.1 ± 1.2 kg/m3: 3670.9 kPa | 3759.3 kPa
956.5 ± 1.2 kg/m3: 1125.8 kPa | 1139 kPa | 1168.5 kPa | 1183.8 kPa | 1195.1 kPa | 1209.5 kPa | 1220.6 kPa | 1231.5 kPa | 1242.6 kPa | 1275.6 kPa | 1293.2 kPa | 1311.6 kPa | 1323 kPa | 1328.9 kPa
955.5 ± 1.2 kg/m3: 119 kPa
962.4 ± 1.2 kg/m3: 9890.5 kPa | 10010 kPa | 10117 kPa
958.5 ± 1.2 kg/m3: 4059.8 kPa
955.8 ± 1.2 kg/m3: 155.5 kPa | 156.6 kPa | 165.3 kPa | 168 kPa | 175 kPa | 182.8 kPa | 319.3 kPa | 364.8 kPa | 373.5 kPa | 449.4 kPa | 526.4 kPa | 711.1 kPa
957.7 ± 1.2 kg/m3: 3115.5 kPa | 3137.8 kPa | 3229.7 kPa
958.4 ± 1.2 kg/m3: 3943.3 kPa | 4061.6 kPa | 4063.3 kPa
956.8 ± 1.2 kg/m3: 1619.7 kPa | 1728.2 kPa | 1736.9 kPa | 1745.9 kPa
956.6 ± 1.2 kg/m3: 1258.4 kPa | 1317.3 kPa | 1427.4 kPa | 1442 kPa | 1448.9 kPa | 1457.1 kPa | 1477.4 kPa | 1485.6 kPa | 1492.5 kPa | 1523.2 kPa
961.7 ± 1.2 kg/m3: 8846.3 kPa | 8895.1 kPa | 8944.2 kPa | 8967 kPa | 9017.1 kPa | 9040.1 kPa | 9063.7 kPa
957.2 ± 1.2 kg/m3: 2381.2 kPa | 2492.4 kPa

— the NIST ThermoML archive (doi:10.1021/je060271a)
